Test results taken from US20150257378A1, “PHEROMONE ATTRACTANTS FOR TAWNY CRAZY ANTS” (STERLING INTERNATIONAL INC., priority 2014, published 2015).

Experiments:
[1] = tested on: N. fulva workers; assay: Field trapping experiments with baited sticky traps; assay type: in vivo, Nylanderia fulva; settings: for attraction compared with blank control: Exp. 8, full factorial design, n-undecane 6-7 mg/day, 2-tridecanone 1 mg/day, formic acid 27-30 mg/d, three days
Description: Nine field trapping experiments were carried out in an old oak woodland with sandy soil and low grass understory at La Marque, Tex., USA (29° 21′23.73″N; 95° 0′9.47″W), using Terro® “Spider & Insect Traps” (sticky traps; Woodstream Corporation, Lititz, Pa.) or Rescue!® crawling insect sticky traps (described, for example in U.S. Application Publication No. 2013/0318860 A1, herein incorporated by reference in its entirety). All the tested dispensers were placed in the center of sticky surface on the bottom of the trap. An unbaited sticky trap was included in each experiment block for all the experiments as a blank control.
Experiments 1 and 2 were conducted simultaneously in summer. Exp. 1 tested two synthetic Dufour's gland pheromone candidate mixtures identified from N. fulva workers (treatment “A”: a mix of eight compounds at near natural ratios from workers: n-undecane, 2-tridecanone, n-decane, 1-undecene, n-tridecane, 2-dodecanone, 2-tetradecanone, 2-pentadecanone; 41:53:1.2:0.5:1:2:0.3:1) and queens (treatment “B”: a mix of four compounds at near natural ratios: n-undecane, 2-tridecanone, n-tridecane and 2-pentadecanone; 54:40:1:5) plus a synthetic binary blend of the two major components (undecane and 2-tridecanone at 50:50 ratio) identified from both workers and queens (treatment “C”) (Table in FIG. 3) using centrifuge tube dispensers with low loading (30 mg each mixture on a small cotton ball inside an open cap 2-ml centrifuge dispenser) at about 2 mg/day (mg/d) release in a randomized block design (6 blocks) using Terro® “Spider & Insect Traps”. Traps were placed on the ground in lines with 2 meters (m) between traps within each set, 3 m between trap sets. […] Experiment 2 was distanced about 15 m away from Exp. 1. The tawny crazy ant population level at the testing site was relatively high and ubiquitous throughout the landscape, as the tawny crazy ant population was actively foraging over the entire surface of the woodland understory and up every tree. The weather was sunny with a mean daily temperature of 28.6° C.
Experiments 3 and 4 were conducted simultaneously in the fall. Exp. 3 tested two synthetic Dufour's gland pheromone candidate mixtures mimicking the N. fulva workers (treatment “A”: a mix of eight compounds; 100 mg loading) and queens (treatment “B”: a mix of four compounds; 100 mg loading) using centrifuge dispensers (with one small cotton ball in each) with low release rate (ca. 2 mg/d), one positive control (treatment “C”: yellow plastic cap loaded with 1 g of Advance® Granular Carpenter Ant Bait, BASF Corporation, NJ, USA), plus a blank control (“D”), in a randomized block design (6 blocks/sets) using the Rescue!® crawling insect sticky traps. Same as in Exp. 1-2, the traps were placed were placed on the ground in lines with 2 m between traps within each set, 3 m between trap sets. […] Exp. 4 was distanced 20 m from Exp. 3. The weather was sunny with a mean daily temperature of 23.4° C. for days 1 and 2. On Day 3 the weather was overcast with a mean daily temperature of 25.3° C. and 0.97 cm of rainfall.
Experiments 5 and 6 were conducted simultaneously in late fall. Exp. 5 tested potential attraction of N. fulva workers to a synthetic mixture mimicking the full blend of N. fulva worker Dufour's gland pheromone (treatment “A”: a mix of eight compounds; 100 mg mixed with 400 μl canola oil (CO) from a stickpack dispenser; 8-12 mg/d), a synthetic pheromone candidate of N. fulva poison gland, formic acid (FA) (treatment “B”; 438 mg FA mixed with 812 mg of polyurethane inside an open 2-ml centrifuge tube; at 27-30 mg/d release) and their combination (treatment “C”) plus a blank control (“D”) in a randomized block design (6 blocks/sets) using the Rescue!® crawling insect sticky traps. Traps were again placed on the ground in lines with 2 m between traps within each set, 3 m between trap sets.

[2] = tested on: workers of the red imported fire ants; settings: contact/fumigation; cited from earlier work
[3] = tested on: L. humile workers; settings: mixed in insecticide sprays; cited from earlier work
[4] = tested on: Argentine ant (Linepithema humile) workers; settings: mixed with the baits; cited from earlier work

| Compound | attraction compared with blank control [1] | toxicity to fire ant workers [2] | effect on killing efficacy of insecticides [3] | effect on consumption of sugar-based liquid baits by ant workers [4] | significance of difference from blank control ([1]; Exp. 5, late fall, low temperature and rain) | N. fulva workers caught compared with blank control (in words) ([1]; Exp. 5, late fall, low temperature and rain, mix of 8 at 8-12 mg/d, formic acid at 27-30 mg/d) | attraction of N. fulva workers ([1]; Exp. 7, summer, high ant populations, mix of 8 at 8-12 mg/d, formic acid at 27-30 mg/d) | attraction of tawny crazy ant workers ([1]; Exp. 9, fall, n-undecane from stickpack at 9-11 mg/d) |
| --- | --- | --- | --- | --- | --- | --- | --- | --- |
| CCCCCCCCCCCC(C)=O [2-tridecanone] | not different from the blank control | strong contact/fumigation toxicity |  |  |  |  |  |  |
| CCCCCC/C=C\CCCCCCCC=O [Z-9-hexadecenal] |  |  | increase the killing efficacy | increase the consumption |  |  |  |  |
| O=CO [formic acid] | not different from the blank control | strong contact/fumigation toxicity |  |  | no significant differences | twice as many | inactive |  |
| CCCCCCCCCCC [n-undecane] | significantly attractive | strong contact/fumigation toxicity |  |  |  |  |  | weakly, but significantly attractive |
